Experimental data taken from patent US11142543B2 (priority 2016, dated 2021).

Tests used:
ICR mice [1] = assay: Tail suspension test (TST), Example 39; format: in vivo; conditions: gavage 10 mg/Kg for 6 days, t-test
From the text: Tail Suspension Test (TST) to Investigate the Antidepressant Activity of Some Compounds and Some Natural Products of the Present Invention
(§1) Male ICR mice (body weight, 20±2 g) used in the experiment were purchased from the Experimental Animal Center of Shanghai Institute of Materia Medica, Chinese Academy of Sciences. They were free access to water and kept at room temperature (23 2) ° C. in natural light. All mice were randomly divided into a blank control group and a test group, with 10 mice in each group and 5 mice/cage. The experiment was started after 3 days of adaptation in the breeding environment. The mice were fasted for 12 hours before the experiment but free access to water. The specific administration method was gavage administration, and the administration dose was 10 mg/Kg, and the blank control group was given an equal volume of 0.5% CMC-Na.
Specific procedures: The mice were continuously administered for 6 days, and tested 1 hour after the last administration. Firstly, the spontaneous activity of the mice was measured by the open field method, that is, the mice were individually placed in a cylindrical glass jar for 4 minutes, and the number of lifting arms within the last 2 minutes was recorded. Then the tail of the mice was stick onto the horizontal bar by the tape at 2 cm from the tip of the tail, and the animal eyesight was separated by the surrounding plates. The horizontal bar was about 25 cm from the ground, so that the mouse was about 10 cm from the ground, and the timing was 6 min. The cumulative immobility time within the last 4 minutes was recorded. Each group of mice was operated in parallel.
(§2) Experimental data processing: The experimental results were expressed as mean standard error (x SD). Statistical analysis was performed using t-test to determine whether it was significant. […] Then, the t-test was performed on the experimental index of tail suspension test to determine whether it had antidepressant effect.

ICR mice [2] = assay: Forced swimming test (FST), Example 38; format: in vivo; conditions: gavage 10 mg/Kg for 6 days, t-test
From the text: Forced swimming test (FST) to investigate the antidepressant activity of some compounds and some natural products of the present invention
as §1, with “dose of the administration group” for “dose”
Specific procedures: The mice were continuously administered for 6 days, and tested 1 hour after the last administration. Firstly, the spontaneous activity of the mice was measured by the open field method, that is, the mice were individually placed in a cylindrical glass jar for 4 minutes, and the number of lifting arms within the last two minutes was recorded. The mice were then individually placed in a cylindrical glass jar (20 cm high and 14 cm in diameter) with a water depth of 10 cm and a water temperature of 23° C. to 25° C. After mice entered into water, a 6-minute timing was conducted, the cumulative immobility time (the criteria for determining immobility: the mice stopped struggling in the water, or floated with only small limb movements to keep the head float on the water) within the last four minutes was recorded. Each group of mice was operated in parallel.
as §2, with “forced swimming” for “tail suspension test”

[3] = Acta Pharmacologica Sinica 2014; 35 (9): 1188-1198; cited from earlier work
mice [4] = assay: Forced swimming test in mouse model, compound C-11 versus fluoxetine, Example 40; format: in vivo; conditions: FIG. 1
Method: The mice were placed in a cylindrical jar 24 hours before administration to accommodate the underwater environment for 15 min. On the day of the behavioral test, animals were administered twice and administered orally 4 h and 1 h before the behavioral test. The mice were individually placed in a cylindrical glass jar, timed for 6 minutes, and the number of arm lift was recorded within the last 2 minutes. The mice were then placed in a cylindrical glass jar having 30 cm high and 20 cm in diameter. […] Water temperature was 23° C.-25° C. After the mice entered into the water, a 6-minute video was taken. […] Each group of mice was operated in parallel.

rats [5] = assay: Tail suspension test in rat model, compound C-11 versus fluoxetine, Example 41; format: in vivo
Method: On the day of the behavioral test, animals were dosed twice and administered orally 4 h and 1 h before the behavioral test. During the experiment, the tail of the rat was hung on a tail suspension test stand about 15 cm away from the ground with a tape or a clip at about 1 cm away from the tail end. […] The experimental time for each group was 6 minutes.

mice [6] = assay: Tail suspension test in mouse model, compound C-11 versus fluoxetine, Example 40; format: in vivo; conditions: FIG. 2
Method: On the day of the behavioral test, animals were dosed twice and administered orally 4 h and 1 h before the behavioral test. During the experiment, the tail of the mouse was hung on a tail suspension test stand about 15 cm away from the ground with a tape or a clip at about 1 cm away from the tail end. The mice struggled to overcome the abnormal posture, but appeared intermittent immobility after a period of activity showing disappointment state. The experimental time for each group was 6 minutes. Since most of the mice struggled actively for the first two minutes, the immobility time within the last four minutes was recorded.

rats [7] = assay: Forced swimming test in rat model, compound C-11 versus fluoxetine, Example 41; format: in vivo
Method: The rats were placed in a cylindrical jar 24 hours before administration to accommodate the underwater environment for 15 min. On the day of the behavioral test, animals were administered twice and administered orally 4 h and 1 h before the behavioral test. The rats were individually placed in a cylindrical glass jar, timed for 6 minutes, and the number of arm lift was recorded within the last 2 minutes. The rats were then placed in a cylindrical glass jar having 30 cm high and 20 cm in diameter. […] Water temperature was 23° C.-25° C.

ICR mice [8] = assay: Toxicity observed during antidepressant efficacy screening (FST and TST animal batch); format: in vivo; conditions: same animal batch as efficacy screening, gavage 10 mg/Kg
From the text: as §1, with “dose of the administration group” for “dose”
as §1, with “The specific administration method was gavage administration, and the administration dose was 10 mg/Kg, and the blank control group was given an equal volume of 0.5% CMC-Na.” left out

[9] = tested on: C57 mice susceptible to social defeat by CD-1 aggressive mice; assay: Social defeated stress (SDS) model, Example 42; format: in vivo; conditions: 10 mg/kg gavage every day
Method: Male CD-1 aged 4-6 months mice which had passed childbearing age were raised separately, allowed to eat freely and adapt to the environment for about one week. Male C57 mice (aged 8-20 weeks differently) were used to screen for aggressive CD-1 mice. The mice screened by C57 were placed directly in the cage of CD-1 for 3 minutes, and the latency period for CD-1 to start showing offensive was recorded, and then the mice screened by C57 were moved out. For each CD-1 mouse, the same C57 was used to screen it three times a day, and different C57-selected mice were selected every day for a total of three days of screening. […] After screening for CD-1 aggressive mice for modeling, each C57 test mouse was exposed to different CD-1 aggressive mice for 10 consecutive days, 10 minutes each day. […] After 10 minutes of contact, the test mice were isolated from the invaders. Test mice and aggressive mice were placed in adjacent sections of the same squirrel cage, separated by a porous transparent plastic baffle, allowing test mice to be exposed under a threatening chronic stress stimulation for the next 24 hours. The control mice were placed in cages having the same structure, but the other side of the baffle was placed with other mice of the same line that were replaced daily. After 24 hours after the end of the last day of the experiment, we evaluated CSDS-induced social behavioral changes and selected all susceptible mice based on previous reports. The social interaction ratio (SI ratio) was calculated according to the following formula: SI ratio=time for the mouse in the interaction area when the aggressor exists/time for the mouse in the interaction area when the aggressor is absent. […] All selected test mice and control mice were then housed individually for 3 weeks. […] The mice in the vehicle group were administered by gavage with 0.5% CMC-Na every day. The SI ratio was assessed once a week.
Two-way ANOVA was used to analyze and LSD method was used for the multiple comparisons of calibration results. The data were expressed in Mean sem. […]

[10] = mice, oral 4 h and 1 h before the test, vs blank group
[11] = rats, oral 4 h and 1 h before the test, dose not given
[12] = dose 3.46 mg/kg oral, vs vehicle group, FIG. 3

| SMILES | effect on immobility time of mouse in tail suspension test compared with the blank group (in words) (ICR mice [1]) | effect on immobility time of mice in forced swimming test compared with the blank group (in words) (ICR mice [2]) | toxicity [3] | effect on cumulative immobility time of mice in the forced swimming test (in words) (mice [4]; [10]) | effective dose compared with fluoxetine (mice [4]; mouse forced swimming test) | effect on cumulative immobility time of rats in tail suspension test (rats [5]; dose 3.46 mg/kg oral, vs vehicle group, FIG. 4) | effective dose compared with fluoxetine (rats [5]; rat tail suspension test, FIG. 4) | effect on immobility time of rats in tail suspension test (in words) (rats [5]; [11]) | effect on cumulative immobility time of the mouse in tail suspension test (in words) (mice [6]; [10]) | effective dose compared with fluoxetine (mice [6]; mouse tail suspension test) | effect on immobility time of rats in forced swimming test (rats [7]; dose 1.73 mg/kg oral, vs vehicle group, FIG. 3) | effect on immobility time of rats in forced swimming test (rats [7]; [12]) | effect on wall climbing behavior / wall climbing time of rats in forced swimming test (rats [7]; [12]) | effective dose compared with fluoxetine (rats [7]; rat forced swimming test, FIG. 3) | effect on cumulative immobility time of rats in the forced swimming test (in words) (rats [7]; [11]) | toxicity observed (ICR mice [8]) | duration of oral administration that effectively alleviates depressive symptoms [9] |
| --- | --- | --- | --- | --- | --- | --- | --- | --- | --- | --- | --- | --- | --- | --- | --- | --- | --- |
| C[C@H]1CC[C@@]2(OC1)O[C@H]1C[C@H]3C4CC[C@@H]5C[C@@H](O[C@@H]6OC(CO)[C@H](O)[C@H](O)C6O[C@@H]6OC(CO)[C@@H](O)[C@H](O)C6O)CC[C@]5(C)C4CC[C@]3(C)C1[C@@H]2C (stereo partly shown) [timosaponin A3, reference compound] | significant antidepressant activity | could not significantly reduce the immobility time | significant toxicity | – | – | – | – | – | – | – | – | – | – | – | – | – | – |
| C[C@H]1CC[C@@]2(OC1)O[C@H]1C[C@H]3[C@@H]4CC[C@@H]5C[C@H](NC(=O)NC6CCCCC6)CC[C@]5(C)[C@H]4CC[C@]3(C)[C@H]1[C@@H]2C [compound C-11] | extremely significant antidepressant activity | extremely significant antidepressant activity | – | significantly reduced the cumulative immobility time | only half of that of fluoxetine | significantly reduce the cumulative immobility time | significantly lower than that of the positive drug fluoxetine | significantly reduced the immobility time | significantly reduced the cumulative immobility time | only half of that of fluoxetine | significantly reduce the immobility time | significantly reduce the immobility time | significantly increases the wall climbing time | significantly lower than that of the positive drug fluoxetine | significantly reduced the cumulative immobility time | No significant toxicity was observed | 1-2 weeks |
